One test has as its target T1, FGFR1 (Homo sapiens, UniProt P11362).
T1 construct: made in house; host or cells: E. coli (BL21-derived), T7 phage
The test is described as follows: Kinase binding assay (kinase-tagged T7 phage, affinity beads, qPCR), Kd. To be noted: read-out: FGFR1 (Kd nM). The gist of the method: (§1)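 Competition binding; kinase-tagged T7 phage lysate vs immobilised biotinylated ligand on streptavidin beads, 0.9% DMSO final. 11-pt 3-fold dilutions, 3 DMSO controls. qPCR of eluted kinase; Kd by Hill fit, slope −1.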
A general note: Real-time PCR tracks product formation cycle by cycle.

A further test has as its target T2, FGFR2 (Homo sapiens, UniProt P21802).
T2 construct: made in house; host or cells: E. coli (BL21-derived), T7 phage
The test is described as above. The settings on record: read-out: FGFR2 (Kd nM). The procedure, abridged:
as §1

The next test concerns the target T3, FGFR3 (Homo sapiens, UniProt P22607).
T3 construct: made in house; host or cells: E. coli (BL21-derived), T7 phage
Described as above. The settings on record: read-out: FGFR3 (Kd nM). The procedure, abridged: as §1

In another test the target is T4, FGFR3 (V555M) (Homo sapiens, UniProt P22607, V555M).
T4 construct: made in house; host or cells: E. coli (BL21-derived), T7 phage
The description is as above. To be noted: V555M mutant; read-out: FGFR3 (V555M) (Kd nM). The gist of the method: as §1

In the next test the target is T5, FGFR4 (Homo sapiens, UniProt P22455).
T5 construct: made in house; host or cells: E. coli (BL21-derived), T7 phage
The test is described as above. To be noted: read-out: FGFR4 (Kd nM). The procedure, abridged:
as §1

Test [1] concerns KATO-III cell line (FGFR2 amplification). The test is described as follows: Cancer cell line cell viability assay (Cell Titer-Glo), 72 hr. Format: cell-based. To be noted: Homo sapiens, KATO III. The procedure, abridged: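 5,000-20,000 cells/well o/n; cpd 9-pt 4x dil from 3 μM, n=3; 37° C/5% CO2; CTG 2.0 lumi; % DMSO ctrl; 4PL IC50.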
The test system of test [2] is KG-1 cell line (FGFR 1-fusion). The description is as above. Format: cell-based. The settings on record: Homo sapiens, KG-1, KG-1 cell line (FGFR1-fusion). The procedure, abridged: (§2)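 Intracellular ATP was measured by Cell Titer-Glo 2.0 luminescence after cells were incubated with compound dilutions (top 3 μM, 4-fold, 9 doses). Values were expressed relative to DMSO-treated cells and IC50 was calculated from a variable-slope dose-response curve.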

For test [3], the system named is RT112/84 cell line (FGFR3-fusion). The test is described as above. Format: cell-based. The settings on record: Homo sapiens, RT112/84, RT112/84 cell line (FGFR3-fusion). The procedure, abridged: as §2

Molecules are shown by their SMILES. Where a name gives a salt, the structure may show the parent alone.

T3 sequence (P22607 23-806): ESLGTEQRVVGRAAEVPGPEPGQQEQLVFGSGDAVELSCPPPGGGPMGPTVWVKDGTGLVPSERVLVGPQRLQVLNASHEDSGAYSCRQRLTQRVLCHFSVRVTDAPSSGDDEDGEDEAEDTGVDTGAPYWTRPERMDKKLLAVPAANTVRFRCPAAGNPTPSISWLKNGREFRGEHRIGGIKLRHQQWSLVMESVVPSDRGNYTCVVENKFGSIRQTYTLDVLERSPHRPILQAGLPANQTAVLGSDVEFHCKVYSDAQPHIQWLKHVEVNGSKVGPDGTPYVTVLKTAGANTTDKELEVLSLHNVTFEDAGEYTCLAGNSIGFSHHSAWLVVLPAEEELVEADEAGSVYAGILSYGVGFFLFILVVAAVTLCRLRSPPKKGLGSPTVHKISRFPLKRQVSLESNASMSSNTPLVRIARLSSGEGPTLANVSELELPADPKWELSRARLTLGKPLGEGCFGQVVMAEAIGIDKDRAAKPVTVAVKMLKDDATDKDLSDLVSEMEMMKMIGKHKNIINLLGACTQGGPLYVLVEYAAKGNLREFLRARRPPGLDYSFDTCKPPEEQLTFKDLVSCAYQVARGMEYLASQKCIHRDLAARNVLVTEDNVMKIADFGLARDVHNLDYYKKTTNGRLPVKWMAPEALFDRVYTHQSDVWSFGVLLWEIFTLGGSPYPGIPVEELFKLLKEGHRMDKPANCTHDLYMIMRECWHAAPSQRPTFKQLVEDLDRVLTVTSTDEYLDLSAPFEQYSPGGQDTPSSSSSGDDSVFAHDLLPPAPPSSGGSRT
T1 sequence (P11362 22-822): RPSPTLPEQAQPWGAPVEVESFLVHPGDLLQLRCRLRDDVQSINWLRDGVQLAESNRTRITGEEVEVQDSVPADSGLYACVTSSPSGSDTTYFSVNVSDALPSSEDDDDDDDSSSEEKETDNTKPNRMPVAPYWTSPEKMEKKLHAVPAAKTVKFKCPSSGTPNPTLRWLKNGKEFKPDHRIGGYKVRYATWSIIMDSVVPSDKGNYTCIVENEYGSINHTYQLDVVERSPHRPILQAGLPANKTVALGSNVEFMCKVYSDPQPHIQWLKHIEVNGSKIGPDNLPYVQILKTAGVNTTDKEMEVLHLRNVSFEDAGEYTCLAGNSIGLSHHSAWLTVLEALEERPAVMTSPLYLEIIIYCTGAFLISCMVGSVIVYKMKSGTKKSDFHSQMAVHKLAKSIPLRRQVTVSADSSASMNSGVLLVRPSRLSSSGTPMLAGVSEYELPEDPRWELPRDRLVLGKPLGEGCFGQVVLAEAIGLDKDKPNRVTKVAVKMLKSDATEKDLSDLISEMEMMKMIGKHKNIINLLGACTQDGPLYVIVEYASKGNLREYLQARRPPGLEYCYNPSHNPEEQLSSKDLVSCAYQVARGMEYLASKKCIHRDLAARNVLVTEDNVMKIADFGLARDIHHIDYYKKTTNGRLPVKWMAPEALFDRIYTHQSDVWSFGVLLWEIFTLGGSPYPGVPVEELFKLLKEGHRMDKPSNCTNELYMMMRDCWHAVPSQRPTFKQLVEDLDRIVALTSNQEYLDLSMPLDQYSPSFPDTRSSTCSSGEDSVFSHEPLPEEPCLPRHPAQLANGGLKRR
T4 sequence (P22607 23-806 V555M): as the sequence (P22607 23-806) above, with V533M counted along it
T2 sequence (P21802 22-821): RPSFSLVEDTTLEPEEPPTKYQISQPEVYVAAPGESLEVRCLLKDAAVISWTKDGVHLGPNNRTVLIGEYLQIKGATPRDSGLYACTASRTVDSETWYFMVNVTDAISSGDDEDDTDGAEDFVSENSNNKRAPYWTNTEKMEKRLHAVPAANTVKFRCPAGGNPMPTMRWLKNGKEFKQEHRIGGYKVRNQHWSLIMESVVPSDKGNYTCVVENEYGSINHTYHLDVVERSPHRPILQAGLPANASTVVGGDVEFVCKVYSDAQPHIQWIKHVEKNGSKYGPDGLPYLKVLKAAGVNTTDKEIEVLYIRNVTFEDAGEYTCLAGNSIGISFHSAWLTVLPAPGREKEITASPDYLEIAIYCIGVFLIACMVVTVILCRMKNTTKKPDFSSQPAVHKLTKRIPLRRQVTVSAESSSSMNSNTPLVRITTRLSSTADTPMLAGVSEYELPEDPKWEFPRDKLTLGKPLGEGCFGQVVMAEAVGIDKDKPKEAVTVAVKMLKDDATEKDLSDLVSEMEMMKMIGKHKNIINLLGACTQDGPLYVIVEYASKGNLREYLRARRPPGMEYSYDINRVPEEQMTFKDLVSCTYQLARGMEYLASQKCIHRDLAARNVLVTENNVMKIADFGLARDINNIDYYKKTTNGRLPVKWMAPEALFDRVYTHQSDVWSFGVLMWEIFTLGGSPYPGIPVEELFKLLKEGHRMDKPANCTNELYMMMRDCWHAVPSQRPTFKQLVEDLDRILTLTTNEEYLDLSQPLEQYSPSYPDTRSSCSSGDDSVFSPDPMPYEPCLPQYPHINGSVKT
T5 sequence (P22455 22-802): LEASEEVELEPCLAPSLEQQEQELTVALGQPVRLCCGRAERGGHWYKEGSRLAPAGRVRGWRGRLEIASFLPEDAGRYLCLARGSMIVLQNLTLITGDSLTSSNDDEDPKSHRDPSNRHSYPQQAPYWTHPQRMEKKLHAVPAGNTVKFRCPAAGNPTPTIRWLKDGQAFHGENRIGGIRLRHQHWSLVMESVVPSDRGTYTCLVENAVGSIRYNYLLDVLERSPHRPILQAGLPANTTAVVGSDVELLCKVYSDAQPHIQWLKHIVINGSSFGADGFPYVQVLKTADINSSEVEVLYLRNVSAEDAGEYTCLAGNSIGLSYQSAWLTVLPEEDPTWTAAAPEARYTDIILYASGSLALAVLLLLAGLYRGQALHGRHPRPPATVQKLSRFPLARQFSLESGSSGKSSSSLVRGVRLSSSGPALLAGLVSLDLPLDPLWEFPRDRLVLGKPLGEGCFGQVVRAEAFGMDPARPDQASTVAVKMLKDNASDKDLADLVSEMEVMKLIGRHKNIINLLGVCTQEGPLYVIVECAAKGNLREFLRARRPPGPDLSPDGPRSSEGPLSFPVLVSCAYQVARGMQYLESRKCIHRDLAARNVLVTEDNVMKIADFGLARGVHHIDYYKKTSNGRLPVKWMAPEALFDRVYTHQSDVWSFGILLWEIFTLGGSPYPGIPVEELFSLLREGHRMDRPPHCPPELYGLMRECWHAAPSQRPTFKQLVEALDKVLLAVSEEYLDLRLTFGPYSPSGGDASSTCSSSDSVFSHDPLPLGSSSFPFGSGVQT

With `C[C@@H](Oc1ccc2[nH]nc(-c3cnc(N4CC(C)(NCC(C)(C)O)C4)c(F)c3)c2c1)c1c(Cl)cncc1Cl` [Example 113, (R)-1-((1-(5-(5-(1-(3,5-dichloropyridin-4-yl)ethoxy)-1H-indazol-3-yl)-3-fluoropyridin-2-yl)-3-methylazetidin-3-yl)amino)-2-methylpropan-2-ol], the Kd at FGFR1, on FGFR2, on FGFR3, on FGFR3 (V555M) and on FGFR4 was 1 to 50 nM in each case. Moreover, the half-maximal inhibitory concentration (IC50) in test [1] was 0.1 to 50 nM; in test [2] it was 50 to 200 nM; in test [3], 0.1 to 50 nM.

Consider `Cc1ncc(Cl)c([C@@H](C)Oc2ccc3[nH]nc(-c4ccc(N5CC(C)(NC6COC6)C5)nc4)c3c2)c1Cl` [Example 70, 1-[5-[5-[(1R)-1-(3,5-dichloro-2-methyl-4-pyridyl)ethoxy]-1H-indazol-3-yl]-2-pyridyl]-3-methyl-N-(oxetan-3-yl)azetidin-3-amine], for which the Kd at FGFR1, on FGFR2, on FGFR3, at FGFR3 (V555M) and at FGFR4 was 1 to 50 nM in each case. The IC50 in test [1] is 0.1 to 50 nM; in test [2], 50 to 200 nM; in test [3] it was 0.1 to 50 nM.

For the compound `COc1cc2[nH]nc(-c3ccc(N4CC(C)(N[C@H]5CCOC5)C4)nc3)c2cc1O[C@H](C)c1c(Cl)cncc1Cl` [Example 66, 1-(5-(5-((R)-1-(3,5-dichloropyridin-4-yl)ethoxy)-6-methoxy-1H-indazol-3-yl)pyridin-2-yl)-3-methyl-N-((S)-tetrahydrofuran-3-yl)azetidin-3-amine], the Kd on FGFR1, at FGFR2, at FGFR3, on FGFR3 (V555M) and at FGFR4 was 1 to 50 nM in each case. The IC50 in test [1], in test [2] and in test [3] was 0.1 to 50 nM each time.

On to `C[C@@H](Oc1cc2c(-c3cnc(N4CC(C)(NCC5CC5)C4)c(F)c3)n[nH]c2cc1F)c1c(Cl)cncc1Cl` [Example 132, N-(cyclopropylmethyl)-1-[5-[5-[(1R)-1-(3,5-dichloro-4-pyridyl)ethoxy]-6-fluoro-1H-indazol-3-yl]-3-fluoro-2-pyridyl]-3-methyl-azetidin-3-amine], for which the Kd at FGFR1, at FGFR2, on FGFR3, on FGFR3 (V555M) and on FGFR4 was 1 to 50 nM each time. In addition, the IC50 in test [1] was in the range of 50 to 200 nM; in test [2], 50 to 200 nM; in test [3], 0.1 to 50 nM.

`CCNC1(C)CN(c2ncc(-c3n[nH]c4cc(OC)c(O[C@H](C)c5c(Cl)cncc5Cl)cc34)cc2C#N)C1` [Example 341, (R)-5-(5-(1-(3,5-Dichloropyridin-4-yl)ethoxy)-6-methoxy-1H-indazol-3-yl)-2-(3-(ethylamino)-3-methylazetidin-1-yl)nicotinonitrile HCl]: the Kd on FGFR1, on FGFR2, on FGFR3, at FGFR3 (V555M) and on FGFR4 was 1 to 50 nM in each case. Also, the IC50 in test [1] lay within 50 to 200 nM; in test [2], 0.1 to 50 nM; in test [3] it was 0.1 to 50 nM.

In the case of `C[C@@H]1CN(C2(C)CN(c3ccc(-c4n[nH]c5ccc(O[C@H](C)c6c(Cl)cncc6Cl)cc45)cn3)C2)CCO1` [Example 211, (R)-4-(1-(5-(5-((R)-1-(3,5-dichloropyridin-4-yl)ethoxy)-1H-indazol-3-yl)pyridin-2-yl)-3-methylazetidin-3-yl)-2-methylmorpholine], the Kd at FGFR1, at FGFR2, on FGFR3, at FGFR3 (V555M) and on FGFR4 was 1 to 50 nM in each case. The IC50 fell in the range of 0.1 to 50 nM in test [1], 50 to 200 nM in test [2] and 0.1 to 50 nM in test [3].

As for `C[C@@H]1CN(C2(C)CN(c3ncc(-c4n[nH]c5ccc(O[C@H](C)c6c(Cl)cncc6Cl)cc45)cc3F)C2)CCO1` [Example 213, (R)-4-(1-(5-(5-((R)-1-(3,5-dichloropyridin-4-yl)ethoxy)-1H-indazol-3-yl)-3-fluoropyridin-2-yl)-3-methylazetidin-3-yl)-2-methylmorpholine], the Kd at FGFR1, on FGFR2, at FGFR3, on FGFR3 (V555M) and on FGFR4 was 1 to 50 nM throughout. For the same compound, the IC50 in test [1] was in the range of 50 to 200 nM; in test [2] it was 200 to 1000 nM; in test [3], 0.1 to 50 nM.

Consider `Cc1ncc(Cl)c([C@@H](C)Oc2ccc3[nH]nc(-c4cnc(N5CC(C)(CS(C)(=O)=O)C5)c(F)c4)c3c2)c1Cl` [Example 210, 5-[(1R)-1-(3,5-dichloro-2-methyl-4-pyridyl)ethoxy]-3-[5-fluoro-6-[3-methyl-3-(methylsulfonyl-methyl)azetidin-1-yl]-3-pyridyl]-1H-indazole], for which the Kd at FGFR1 was in the range of 50 to 300 nM; at FGFR2 it was 1 to 50 nM; on FGFR3, 1 to 50 nM; on FGFR3 (V555M), 1 to 50 nM; at FGFR4 it was 1 to 50 nM. For the same compound, the IC50 was 50 to 200 nM in test [1], 200 to 1000 nM in test [2] and 0.1 to 50 nM in test [3].

With `C[C@@H](Oc1ccc2[nH]nc(-c3cnc(N4CC(C)(N5CC(C)(O)C5)C4)c(F)c3)c2c1)c1c(Cl)cncc1Cl` [Example 96, (R)-1′-(5-(5-(1-(3,5-dichloropyridin-4-yl)ethoxy)-1H-indazol-3-yl)-3-fluoropyridin-2-yl)-3,3′-dimethyl-[1,3′-biazetidin]-3-ol], the Kd at FGFR1, on FGFR2, at FGFR3, on FGFR3 (V555M) and at FGFR4 was 1 to 50 nM throughout. For the same compound, the IC50 in test [1], in test [2] and in test [3] was 0.1 to 50 nM each time.

On to `C[C@@H](Oc1ccc2[nH]nc(-c3cnc(N4CC(C)(N5CC(C)(C)C5)C4)c(F)c3)c2c1)c1c(Cl)cncc1Cl` [Example 111, (R)-5-(1-(3,5-dichloropyridin-4-yl)ethoxy)-3-(5-fluoro-6-(3,3,3′-trimethyl-[1,3′-biazetidin]-1′-yl)pyridin-3-yl)-1H-indazole], for which the Kd on FGFR1, on FGFR2, at FGFR3, on FGFR3 (V555M) and at FGFR4 was 1 to 50 nM throughout. For the same compound, the IC50 in test [1] is 0.1 to 50 nM; in test [2], 50 to 200 nM; in test [3] it was 0.1 to 50 nM.

Consider `C[C@@H](Oc1ccc2[nH]nc(-c3ccc(N4CC(C)(N5CC6CC(C5)O6)C4)nc3)c2c1)c1c(Cl)cncc1Cl` [Example 222, 3-(1-(5-(5-((R)-1-(3,5-dichloropyridin-4-yl)ethoxy)-1H-indazol-3-yl)pyridin-2-yl)-3-methylazetidin-3-yl)-6-oxa-3-aza-bicyclo[3.1.1]hep-tane], for which the Kd at FGFR1, on FGFR2, on FGFR3, on FGFR3 (V555M) and on FGFR4 was 1 to 50 nM throughout. For the same compound, the IC50 in test [1], in test [2] and in test [3] was 0.1 to 50 nM each time.

As to `COc1cc2[nH]nc(-c3cnc(N4CC(C)(NCC5CC5)C4)c(F)c3)c2cc1O[C@H](C)c1c(Cl)cncc1Cl` [Example 126, (R)-N-(cyclopropylmethyl)-1-(5-(5-(1-(3,5-dichloropyridin-4-yl)ethoxy)-6-methoxy-1H-indazol-3-yl)-3-fluoropyridin-2-yl)-3-methylazetidin-3-amine], the Kd on FGFR1, at FGFR2, on FGFR3, at FGFR3 (V555M) and on FGFR4 was 1 to 50 nM in each case. In addition, the IC50 in test [1], in test [2] and in test [3] was 0.1 to 50 nM throughout.

As for `C[C@H]1CN(C2(C)CN(c3ncc(-c4n[nH]c5ccc(O[C@H](C)c6c(Cl)cncc6Cl)cc45)cc3F)C2)CCO1` [Example 216, (S)-4-(1-(5-(5-((R)-1-(3,5-dichloropyridin-4-yl)ethoxy)-1H-indazol-3-yl)-3-fluoropyridin-2-yl)-3-methylazetidin-3-yl)-2-methylmorpholine], the Kd on FGFR1, on FGFR2, on FGFR3, at FGFR3 (V555M) and at FGFR4 was 1 to 50 nM throughout. In addition, the IC50 in test [1] was in the range of 50 to 200 nM; in test [2] it was 50 to 200 nM; in test [3], 0.1 to 50 nM.

In general, Kd refers to the equilibrium constant for the complex coming apart. Usually IC50 stands for the concentration needed to halve the response being measured.

The values above are taken from patent US20250368666A1, “INDAZOLE COMPOUNDS” (TYRA BIOSCIENCES, INC., priority 2022, published 2025).
